Test results: patent US20040247699A1, “Method for the prevention or treatment of overweight in mammals” (priority 2002, published 2004)

Assay: Effects on physical activity (ambulatory counts)
Settings: 12.5 mg caffeine per kg rat oral, period when rats are normally asleep
Description: In the study as described in example 1, the physical activity of the animals was determined by monitoring ambulatory counts.
The effects of caffeine on physical activity was tested in rats and compared to placebo (water). In a placebo controlled cross-over design as described in example 1, the effects of administration of either 12.5 mg caffeine per kg of rat or water on physical activity was determined. Physical activity of the animals was determined by monitoring ambulatory counts.
Results are shown as the average ambulatory counts per 26 minutes.

With `Cn1c(=O)c2c(ncn2C)n(C)c1=O` [caffeine] as the compound, how does the “ambulatory counts per 26 minutes compared to placebo” value read?
The value was “ambulatory counts increase”.
